Molecules are shown by their SMILES. Where two headings read alike, the source gives them in different places.

The nature of series [1]: n-octanol/water partition coefficient (logP) by RP-TLC. Type of series: physicochemical. On the procedure:
Determination of n-octanol/water partition coefficients (LogP) […]
mixture of dichloromethane/CH3OH at proper concentrations. Commercially available […]
7.4) (6/4, v/v) was used. The solvent migration distance was around 4.5 cm. The plates […]
and its distance was manually measured. All measurements were done in at least triplicate and average values were used in further calculations. All experiments were performed at ambient temperature (22 ± 2 °C). […]

In a further series the test system is AsPC1 cells. As to the kind of experiment: Cell viability by flow cytometry, AsPC1. The series is classed as cell-based, human. As to conditions: AsPC1, 72 h incubation. Here is the method:
Table S3. Effects of the prodrugs on the viability of BL2 cell line (IC50 values) after 48 and […]
AsPC1 cells The cells (20.000/well) were seeded in a 12-well plate and incubated for 24 h. Afterwards, the medium was changed and the cells were further incubated for 72 h with medium containing different concentrations of compounds 2c and 5b. Viable cells were determined based on the morphological parameters by using flow cytometry (Table S4).
Table S4. Effects of the prodrugs on the viability of AsPC1 cell lines (IC50 values) after 72 […]
Jurkat cells The cells were counted in MUSE Cell Analyzer using MUSE® Count &Viability Assay Kit (Merck-Millipore, Billerica, MA, USA) and adjusted to a density of 1.0 x 10^5/ml in RPMI 1640 medium (with 10% FCS and 1% glutamine). 9.000 cells per well per 90 µL were seeded into 96 well culture plates. The 30 mM prodrug stock solutions in DMSO were diluted to 300 µM, 100 µM, 30 µM and 10 µM in cell culture medium and 10 µL of the dilutions was pipetted to the cells, receiving final test concentrations of 30 µM, 10 µM, 3 µM and 1 µM. Every concentration was tested in triplicates. Cells with corresponding amounts of DMSO served as negative controls. After 48 h cells were mixed and 25 µL of […]
(In general: In flow cytometry, cells or beads pass a laser one at a time.)

The subject of series [2] is A2780 cells. The series can be described thus: Organelle-specific staining in A2780 cells (R123 MMP, AO lysosomes, ER, Golgi). As to conditions: for effect on lysosomes (LY), endoplasmic reticulum (ER) and Golgi (GO) staining: A2780, 30 µM, 1-4 h; for MMP compared to the MMP of untreated cells: R123. The series is classed as cell-based, human. Here is the method:
Effect of prodrugs and controls on cellular organelles in A2780 cells: lysosomes (LY), endoplasmic reticulum (ER), Golgi (G) and mitochondria (Mit) (Figures 3, S56) A2780 cells were seeded in RPMI 1640 medium containing 5% FBS, 1% L-glutamine and 1% penicillin/streptomycin in a 24-well microtiter plate (total volume 0.5 mL) at a density of 200 cells/µL one day before the experiment. On the day of the experiment, prodrugs (“LY/ER/G”-experiments: stock solution - 3 mM, 5 µL, final concentration: 30 µM; “Mit”- experiment: stock solutions - 0.5, 1 and 3 mM, 5 µL, final concentrations: 5, 10, 30 µM) or carrier only (DMSO, 1%, v/v) were added to cells and incubated for 1, 4 and 24 h in a dark chamber filled with CO2 (5 %) at 37 °C. The cells were washed twice with DPBS buffer and the medium was replaced with HBSS (Hanks' Balanced Salt solution, 500 μL).
Stock solutions of different dyes (5 µL) were added: concentrations of the stock solutions were 4 mg/L for Acridine orange (AO), 10 mg/L for Rhodamine 123 (R123), 1 µM for ER-Tracker-Green (ERG) and 10 µM for Golgi-Staining-Green (GO). […]
Final concentrations of solutions were 40 µ g/L for AO, 100 µ g/L for R123, 0.01 µ M for ERG and 0.1 µ M for GO. The cells were incubated in the dark chamber filled with CO 2 (5%) at 37 ° C for 20 min. Afterwards the supernatant was removed, the cells were washed with DPBS buffer twice and detached from the culture dish using t rypsin/EDTA (0.025%/0.01%, v/v, 200 µ L). Next, the cells were re -suspended in fresh medium. Finally, the fluorescence of live cells (the number of total events was 5000, λex = 488 nm, λ em = 530 nm) in the suspensions was determined by using flow cytometry (N=3, Figure 3, S56).
Figure S56. Effects of the prodrugs on mitochondria membrane potential (MMP) of A2780 cell lines after 1 -48 h incubation. *: p< 0.05; **: p< 0.01; ***: p< 0.001 , Student’s t test. […]
reference (labelled on the plot). […]

Series [3] has as its system A2780 cells. As to the kind of experiment: Mitochondrial ROS (MitoSOX, flow cytometry), A2780. Type of series: cell-based, human. Here is the method:
Monitoring mitochondrial ROS (mROS)
A2780 cells were seeded in RPMI 1640 medium containing 5% FBS, 1% L-glutamine and 1% penicillin/streptomycin in a 96-well microtiter plate (total volume 0.1 mL) at a density of 250 cells/µL one day before the experiment. On the day of the experiment, the cells were washed with DPBS buffer and a fresh portion of RPMI 1640 medium containing 5% FBS, 1% L-glutamine and 1% penicillin/streptomycin (100 µL) was added followed by addition of compounds (1 μL of stock solutions in DMSO, final concentration of the prodrugs was 5, 10 μM and 30 μM) or carrier only (DMSO, 1 µL, final concentration 1 %, v/v) and incubation for 1 or 2 h in the dark chamber filled with CO 2 (5%) at 37 °C. After that, the cells were washed twice with DPBS buffer and the medium was replaced with HBSS (Hanks' Balanced Salt solution, 50 μL) containing MitoSOX (Red Mitochondrial Superoxide Indicator, Thermo-Fisher, Catalog number M36008, final concentration 5 µM obtained by adding 0.5 µ L of the 0.5 mM stock solution of MitoSOX in DMSO to the HBSS ) […]
(1 picture or pasted object on this page, not shown here) […]
and the cells were incubated in the dark chamber filled with CO2 (5%) at 37 °C for 20 min.
Next, the cells were detached from the culture dish using trypsin/EDTA (0.025%/0.01%, v/v, 50 µL). The cells were re-suspended in RPMI 1640 medium containing 5% FBS, 1% L-glutamine and 1% penicillin/streptomycin (100 µL). Finally, the fluorescence of live cells (λex = 488 nm, λem = 578 nm) in the suspensions was determined by using flow cytometry

Broadly, the IC50 is the concentration that gives 50% inhibition. The low end stands for inhibition by little substance, the high end for a need for much substance. In the case of `CC1(C)OB(c2ccc(COC(=O)N(Cc3cn(Cc4ccc(Cn5cc(Cc6ccccc6)nn5)cc4)nn3)[c-]3cccc3)cc2)OC1(C)C.[Fe+2].c1cc[cH-]c1` [2c], the “logP (Hydrolyzed Prodrug)” value in series [1] (n-octanol/water partition coefficient of the hydrolyzed boronic acid (_BA) form of the prodrug named) worked out at 3.23 ± 0.11. Moreover, the “logP (Prodrug)” value in series [1] (n-octanol/water partition coefficient of the intact prodrug (or control 2c_c), RP-TLC, MOPS pH 7.4) worked out at 5.37 ± 0.15. In the series with AsPC1 cells, this compound yielded a concentration for half-maximal inhibition (IC50) of 7.1 ± 1 µM. In the series with A2780 cells [2], the “effect on lysosomes (LY), endoplasmic reticulum (ER) and Golgi (GO) staining” value was “affected neither LY nor ER nor GO”. Moreover, the “MMP compared to the MMP of untreated cells” value was 69 ± 11% in the series with A2780 cells [2] (A2780, 1 h incubation) and 30 ± 5% with A2780 cells [2] (A2780, 24 h incubation). Further, the “mitochondrial ROS (mROS) vs non-treated cells” value in the series on A2780 cells [3] is recorded as “significantly increased”.

In turn, `CC1(C)OB(c2ccc(COC(=O)N(Cc3cccc(CN4CCCCC4)c3)[c-]3cccc3)cc2)OC1(C)C.[Fe+2].c1cc[cH-]c1` [5b] displayed an IC50 with AsPC1 cells of 6.7 ± 0.5 µM. Also, in the series on A2780 cells [2], the “effect on lysosomes (LY), endoplasmic reticulum (ER) and Golgi (GO) staining” value is “strongly affected lysosomes”. The “mitochondrial ROS (mROS) vs non-treated cells” value in the series on A2780 cells [3] is “did not affect mROS”.

For the compound `CCOC(=O)CCCCCn1cc(CN(C(=O)OCc2ccc(B3OC(C)(C)C(C)(C)O3)cc2)[c-]2cccc2)nn1.[Fe+2].c1cc[cH-]c1` [compound 1], in series [1], the “logP (Hydrolyzed Prodrug)” value was determined as 2.83 ± 0.07. Moreover, the “logP (Prodrug)” value in series [1] (pH 7.4) is reported as 4.87 ± 0.05. The “mitochondrial ROS (mROS) vs non-treated cells” value in the series with A2780 cells [3] is “substantially weaker”.

The values are drawn from publication PMC8750417, “Intracellular Amplifiers of Reactive Oxygen Species Affecting Mitochondria as Radiosensitizers” (Cancers, 2021).
